Peptide text beside a SMILES is read from it.
How the values were obtained:
Sprague-Dawley rats [1] = test: Ketamine drug discrimination; conditions: FIG. 5: drug discrimination, place preference, prepulse inhibition, open field
Sprague-Dawley rats [2] = test: Open field locomotor activity (line crosses); conditions: 0.1 μg, 20 min following MPFC infusion
Sprague-Dawley rats [3] = test: Porsolt test; conditions: IV
[4] = system: Wnt signaling pathway gene expression; test: Wnt pathway-specific qRT-PCR array in mPFC; format: in vivo, rat
Procedure: Adult (2-3 month-old) male Sprague-Dawley rats (Harlan Laboratories, Indianapolis, Ind.) were housed 3 to a cage and injected (IV) with one of the following—GLYX-13 (3 mg/kg), ketamine (10 mg/kg), or saline vehicle (1 ml/kg). At 1 and 24 hours after injection (N=5 per time point for each treatment group), rats were sacrificed, their brains were quickly dissected, frozen, and then stored at −80° C. The medial prefrontal cortex (mPFC) was dissected from frozen tissue on ice. An equal volume of the homogenized tissue was used to extract and purify RNA for microarray analysis and to make cDNA for qRT-PCR analysis. All procedures were approved by the Northwestern University IACUC committee and performed in accordance with the NIH Guide for the Care and Use of Laboratory Animals.
Reverse transcription of 1.0 μg of DNAsed, total RNA from 4 rats was primed with oligo(dT) and random hexamers. We utilized SuperScriptIII according to manufacturer's specifications (Invitrogen, Carlsbad, Calif.). A 1:10 dilution of cDNA was used as a template for quantitative real-time PCR, and the analysis was performed with Brilliant SYBR Green qRT-PCR Master Mix (Stratagene) on a Mx3000P Real-Time PCR System. ROX reference dye was included in all reactions. […]

Row | Compound | ketamine-like addictive sensory motor gating, or sedative side effects (Sprague-Dawley rats [1]) | locomotor activity (line crosses in the open field) following MPFC infusion (Sprague-Dawley rats [2]) | anti-depressant effect in the Porsolt test (Sprague-Dawley rats [3]; 10 mg/kg) | rapid antidepressant-like effects in the Porsolt test (Sprague-Dawley rats [3]; rat) | number of genes downregulated (Wnt qRT-PCR array) ([4]; 1 and 24 hrs following administration, 10 mg/kg IV, mPFC) [gene] | Frizzled 2 (Fzd) gene expression (Wnt qPCR array) ([4]; following injection, relative to vehicle control rats)
1 | C[C@@H](O)[C@H](N)C(=O)N1CCC[C@H]1C(=O)N1CCC[C@H]1C(=O)N[C@H](C(N)=O)[C@@H](C)O [GLYX-13, L-threonyl-L-prolyl-L-prolyl-L-threonine amide] (H-TPPT-NH2) | does not show ketamine-like addictive sensory motor gating, or sedative side effects |  |  |  |  | 
2 | CNC1(c2ccccc2Cl)CCCCC1=O (stereo not drawn) [Ketamine, ketamine] |  | increased locomotor activity | produces a long-lasting anti-depressant effect | produce rapid antidepressant-like effects | 1 | Significant gene expression changes

Source: patent publication US20150253305A1, “METHODS OF IDENTIFYING COMPOUNDS FOR TREATING DEPRESSION AND OTHER RELATED DISEASES” (NORTHWESTERN UNIVERSITY, priority 2012, published 2015)
